From patent US10538498B2, “1,3,4-oxadiazole sulfonamide derivative compounds as histone deacetylase 6 inhibitor, and the pharmaceutical composition comprising the same” (Chong Kun Dang Pharmaceutical Corp., priority 2015, dated 2020)

Target: T1, human recombinant HDAC6 (Homo sapiens, UniProt Q9UBN7)
T1 construct: purchased Calbiochem 382180
T1 sequence (Q9UBN7 1-1215): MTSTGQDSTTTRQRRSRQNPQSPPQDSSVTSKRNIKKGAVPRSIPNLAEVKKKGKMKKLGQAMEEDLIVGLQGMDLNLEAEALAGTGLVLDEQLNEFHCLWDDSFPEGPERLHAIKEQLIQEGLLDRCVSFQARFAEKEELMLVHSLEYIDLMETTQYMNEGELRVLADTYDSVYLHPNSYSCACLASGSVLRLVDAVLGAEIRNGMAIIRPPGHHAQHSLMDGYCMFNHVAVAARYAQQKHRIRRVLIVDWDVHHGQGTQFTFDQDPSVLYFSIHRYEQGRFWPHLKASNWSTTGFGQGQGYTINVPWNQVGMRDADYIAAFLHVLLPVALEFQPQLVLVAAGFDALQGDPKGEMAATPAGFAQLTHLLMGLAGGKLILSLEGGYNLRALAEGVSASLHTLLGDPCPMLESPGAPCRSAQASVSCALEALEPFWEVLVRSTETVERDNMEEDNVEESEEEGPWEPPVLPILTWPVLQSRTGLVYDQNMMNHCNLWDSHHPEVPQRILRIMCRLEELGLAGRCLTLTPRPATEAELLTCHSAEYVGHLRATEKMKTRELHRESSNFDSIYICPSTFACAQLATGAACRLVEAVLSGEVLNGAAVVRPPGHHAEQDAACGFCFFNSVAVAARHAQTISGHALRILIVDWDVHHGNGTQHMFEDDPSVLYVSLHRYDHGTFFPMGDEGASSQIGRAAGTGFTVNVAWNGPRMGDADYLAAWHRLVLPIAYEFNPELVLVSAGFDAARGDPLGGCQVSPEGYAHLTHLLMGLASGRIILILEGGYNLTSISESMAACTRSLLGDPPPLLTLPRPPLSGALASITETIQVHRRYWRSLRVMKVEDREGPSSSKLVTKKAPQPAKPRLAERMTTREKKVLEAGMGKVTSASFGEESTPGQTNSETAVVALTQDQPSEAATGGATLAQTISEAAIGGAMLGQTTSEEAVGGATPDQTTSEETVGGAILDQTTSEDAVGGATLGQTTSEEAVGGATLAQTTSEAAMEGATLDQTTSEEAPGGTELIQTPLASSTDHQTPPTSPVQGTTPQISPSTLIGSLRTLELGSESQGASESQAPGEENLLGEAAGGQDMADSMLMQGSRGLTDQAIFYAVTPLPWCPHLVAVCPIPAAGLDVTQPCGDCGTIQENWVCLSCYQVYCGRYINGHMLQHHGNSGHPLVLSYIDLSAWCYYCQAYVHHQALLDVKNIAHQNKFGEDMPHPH
Test: HDAC6 enzyme activity inhibition assay (HDAC Fluorimetric Drug Discovery Kit)
Format: biochemical
Details: for HDAC6 selectivity (fold): HDAC1 vs HDAC6; for IC50: same protocol as the HDAC1 enzyme activity test
Outline: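 5-fold compound dilutions + 0.3 μg enzyme + 10 μM Fluor de Lys-SIRT1 substrate, 60 min, 30° C; Developer II 30 min; fluorescence Ex 360/Em 460; IC50 by curve fit.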

Row | Structure (SMILES) | HDAC6 selectivity (fold) | IC50 [nM]
1 | O=S(=O)(CCN1Cc2ccccc2C1)N(Cc1ccc(-c2nnc(C(F)F)o2)cc1)c1ccccc1 [Compound 11756, N-(4-(5-(difluoromethyl)-1,3,4-oxadiazol-2-yl)benzyl)-2-(isoindolin-2-yl)-N-phenylethane-1-sulfonamide] | 264 | 378
2 | O=S(=O)(CCN1CCCN(Cc2ccccc2)CC1)N(Cc1ccc(-c2nnc(C(F)F)o2)cc1)c1ccccc1 [Compound 11760, 2-(4-benzyl-1,4-diazepan-1-yl)-N-(4-(5-(difluoromethyl)-1,3,4-oxadiazol-2-yl)benzyl)-N-phenylethane-1-sulfonamide] | 508 | 197
3 | O=S(=O)(CCN1CCC(Cc2ccccc2)CC1)N(Cc1ccc(-c2nnc(C(F)F)o2)cc1)c1ccccc1 [Compound 11762, 2-(4-benzylpiperidin-1-yl)-N-(4-(5-(difluoromethyl)-1,3,4-oxadiazol-2-yl)benzyl)-N-phenylethane-1-sulfonamide] | 100 | 1000
4 | Cc1noc(C2CCN(CCS(=O)(=O)N(Cc3ccc(-c4nnc(C(F)F)o4)cc3)c3ccccc3)CC2)n1 [Compound 11764, N-(4-(5-(difluoromethyl)-1,3,4-oxadiazol-2-yl)benzyl)-2-(4-(3-methyl-1,2,4-oxadiazol-5-yl)piperidin-1-yl)-N-phenylethane-1-sulfonamide] | 731 | 137
5 | CCN(CCS(=O)(=O)N(Cc1ccc(-c2nnc(C(F)F)o2)cc1)c1ccccc1)Cc1ccccc1 [Compound 11765, 2-(benzyl(ethyl)amino)-N-(4-(5-(difluoromethyl)-1,3,4-oxadiazol-2-yl)benzyl)-N-phenylethane-1-sulfonamide] | 526 | 190
6 | O=S(=O)(CCN1CCN(c2ccccc2)CC1)N(Cc1ccc(-c2nnc(C(F)F)o2)cc1)c1ccccc1 [Compound 11766, N-(4-(5-(difluoromethyl)-1,3,4-oxadiazol-2-yl)benzyl)-N-phenyl-2-(4-phenylpiperazin-1-yl)ethane-1-sulfonamide] | 319 | 313
7 | O=S(=O)(CCN1CCN(c2ccccn2)CC1)N(Cc1ccc(-c2nnc(C(F)F)o2)cc1)c1ccccc1 [Compound 11767, N-(4-(5-(difluoromethyl)-1,3,4-oxadiazol-2-yl)benzyl)-N-phenyl-2-(4-(pyridin-2-yl)piperazin-1-yl)ethane-1-sulfonamide] | 844 | 118
8 | O=S(=O)(CCN1CCN(c2ccc(F)cc2)CC1)N(Cc1ccc(-c2nnc(C(F)F)o2)cc1)c1ccccc1 [Compound 11769, N-(4-(5-(difluoromethyl)-1,3,4-oxadiazol-2-yl)benzyl)-2-(4-(4-fluorophenyl)piperazin-1-yl)-N-phenylethane-1-sulfonamide] | 359 | 278
9 | O=S(=O)(CCN1CCN(c2ccc(Cl)c(Cl)c2)CC1)N(Cc1ccc(-c2nnc(C(F)F)o2)cc1)c1ccccc1 [Compound 11770, 2-(4-(3,4-dichlorophenyl)piperazin-1-yl)-N-(4-(5-(difluoromethyl)-1,3,4-oxadiazol-2-yl)benzyl)-N-phenylethane-1-sulfonamide] | 112 | 886
10 | O=S(=O)(CCN1CCN(CCc2ccccc2)CC1)N(Cc1ccc(-c2nnc(C(F)F)o2)cc1)c1ccccc1 [Compound 11771, N-(4-(5-(difluoromethyl)-1,3,4-oxadiazol-2-yl)benzyl)-2-(4-phenethylpiperazin-1-yl)-N-phenylethane-1-sulfonamide] | 311 | 321
11 | O=S(=O)(CCN1CCN(C/C=C/c2ccccc2)CC1)N(Cc1ccc(-c2nnc(C(F)F)o2)cc1)c1ccccc1 [Compound 11773, 2-(4-cinnamylpiperazin-1-yl)-N-(4-(5-(difluoromethyl)-1,3,4-oxadiazol-2-yl)benzyl)-N-phenylethane-1-sulfonamide] | 370 | 270

Molecules with a lower IC50, results first:

Row | HDAC6 selectivity (fold) | IC50 [nM] | Structure (SMILES)
12 | 953 | 105 | O=S(=O)(CCN1CC[C@@H](F)C1)N(Cc1ccc(-c2nnc(C(F)F)o2)cc1)c1ccccc1 [Compound 11753, (R)—N-(4-(5-(difluoromethyl)-1,3,4-oxadiazol-2-yl)benzyl)-2-(3-fluoropyrrolidin-1-yl)-N-phenylethane-1-sulfonamide]
13 | 1420 | 70.4 | CN(C)[C@@H]1CCN(CCS(=O)(=O)N(Cc2ccc(-c3nnc(C(F)F)o3)cc2)c2ccccc2)C1 [Compound 11754, (R)—N-(4-(5-(difluoromethyl)-1,3,4-oxadiazol-2-yl)benzyl)-2-(3-(dimethylamino)pyrrolidin-1-yl)-N-phenylethane-1-sulfonamide]
14 | 1377 | 72.6 | CN(C)[C@H]1CCN(CCS(=O)(=O)N(Cc2ccc(-c3nnc(C(F)F)o3)cc2)c2ccccc2)C1 [Compound 11755, (S)—N-(4-(5-(difluoromethyl)-1,3,4-oxadiazol-2-yl)benzyl)-2-(3-(dimethylamino)pyrrolidin-1-yl)-N-phenylethane-1-sulfonamide]
15 | 1447 | 69.1 | CCN1CCN(CCS(=O)(=O)N(Cc2ccc(-c3nnc(C(F)F)o3)cc2)c2ccccc2)CC1 [Compound 11757, N-(4-(5-(difluoromethyl)-1,3,4-oxadiazol-2-yl)benzyl)-2-(4-ethylpiperazin-1-yl)-N-phenylethane-1-sulfonamide]
16 | 1039 | 96.2 | COCCN1CCN(CCS(=O)(=O)N(Cc2ccc(-c3nnc(C(F)F)o3)cc2)c2ccccc2)CC1 [Compound 11758, N-(4-(5-(difluoromethyl)-1,3,4-oxadiazol-2-yl)benzyl)-2-(4-(2-methoxyethyl)piperazin-1-yl)-N-phenylethane-1-sulfonamide]
17 | 984 | 102 | CC(=O)N1CCCN(CCS(=O)(=O)N(Cc2ccc(-c3nnc(C(F)F)o3)cc2)c2ccccc2)CC1 [Compound 11759, 2-(4-acetyl-1,4-diazepan-1-yl)-N-(4-(5-(difluoromethyl)-1,3,4-oxadiazol-2-yl)benzyl)-N-phenylethane-1-sulfonamide]
18 | 976 | 102 | O=C(C1CC1)N1CCN(CCS(=O)(=O)N(Cc2ccc(-c3nnc(C(F)F)o3)cc2)c2ccccc2)CC1 [Compound 11761, 2-(4-(cyclopropanecarbonyl)piperazin-1-yl)-N-(4-(5-(difluoromethyl)-1,3,4-oxadiazol-2-yl)benzyl)-N-phenylethane-1-sulfonamide]
19 | 948 | 105 | O=S(=O)(CCN1CCC(N2CCOCC2)CC1)N(Cc1ccc(-c2nnc(C(F)F)o2)cc1)c1ccccc1 [Compound 11763, N-(4-(5-(difluoromethyl)-1,3,4-oxadiazol-2-yl)benzyl)-2-(4-morpholinopiperidin-1-yl)-N-phenylethane-1-sulfonamide]
20 | 2610 | 38.3 | O=S(=O)(CCN1CCN(c2ccncc2)CC1)N(Cc1ccc(-c2nnc(C(F)F)o2)cc1)c1ccccc1 [Compound 11768, N-(4-(5-(difluoromethyl)-1,3,4-oxadiazol-2-yl)benzyl)-N-phenyl-2-(4-(pyridin-4-yl)piperazin-1-yl)ethane-1-sulfonamide]
21 | 2057 | 48.6 | O=S(=O)(CCN1CCN(CCc2ccncc2)CC1)N(Cc1ccc(-c2nnc(C(F)F)o2)cc1)c1ccccc1 [Compound 11772, N-(4-(5-(difluoromethyl)-1,3,4-oxadiazol-2-yl)benzyl)-N-phenyl-2-(4-(2-(pyridin-4-yl)ethyl)piperazin-1-yl)ethane-1-sulfonamide]
22 | 1503 | 66.5 | CS(=O)(=O)N(Cc1ccc(-c2nnc(C(F)F)o2)cc1F)c1ccc2ncoc2c1 [Compound 11774, N-(benzo[d]oxazol-6-yl)-N-(4-(5-(difluoromethyl)-1,3,4-oxadiazol-2-yl)-2-fluorobenzyl)methanesulfonamide]
